Data set [1] in a line: CC50 assay (CellTiter-Glo) in Huh-7 HCV replicon cells. The data set is classed as cell-based, human. The settings on record: human, 3 days incubation, CellTiter-Glo readout. The method, then:
(§1) The anti-HCV activity of the pyrido[3,2-d]pyrimidine derivatives of this invention was tested in a human hepatoma Huh-7 cell line harboring a HCV replicon. The assay comprised the following steps:
(§2) Step 1: Compound Preparation and Serial Dilution
(§3) • 1. for water soluble pyrido[3,2-d]pyrimidine derivatives, a volume of 500 μL of solution in cell media (DMEM, 10% FBS, P/S, L-Glutamine) was prepared with a concentration being twice the concentration of the starting final serial dilution concentration. A volume of 150 μL of the solution was added to the pre-specified wells in column 1 of a 96-well cell culture plate (PerkinElmer, white plate, cat. #6005181, for EC50 assay; black plate, cat. #6005182 for CC50 assay). The rest of the plate, columns 2-12, was filled with 100 μL of cell media. The plate was then placed on a Precision 2000 Workstation to start the serial dilution. Compounds were diluted three times each step from column 1 to column 10. Column 11 was used as a blank control (no compound added). • 2. for pyrido[3,2-d]pyrimidine derivatives requiring DMSO to dissolve, serial dilution is performed in 50% DMSO in a 384-well plate. A solution containing a compound at 100-fold concentration of the starting final serial dilution concentration was prepared in 50% DMSO and added to the pre-specified wells in column 1 of a polypropylene 384-well plate. The plate was then placed on a Precision 2000 Workstation to start the serial dilution. After the serial dilution, a volume of 2 μL of the solution was transferred from the 384-well plate to a 96-well cell culture plate containing 100 μL of cell media on a Biomek FX Workstation. The DMSO concentration in the final assay condition was 0.5% after cells are added to the plate and the total volume in each well is brought to 200 μL.
(§4) Step 2: to each well of the serial dilution plate prepared above, 100 μL of cell media containing 6000 suspended Huh-7 HCV replicon cells was added with a Multidrop workstation. The plates were incubated for 3 days at 37° C. with 5% CO2.
(§5) • a) for the EC50 assay, the media in a 96-well cell culture plate was aspirated with a Biotek EL405 plate-washer. A volume of 200 μL of a solution containing a 1:1 mixture of cell-lysis buffer (Promega, Luciferase Cell Culture Lysis 5× Reagent, cat. #E1531) and luciferase substrate solution (Promega, Luciferase Assay, cat.#E4550) was added to each well of the plate with Multidrop. The plate was incubated for 30 minutes at room temperature before the luminescence signal was measured with a TopCount plate-reader. • b) for the CC50 assay, a volume of 100 μL of pre-mixed CellTiter-Glo (Promega, cat.#G7572) solution is added directly to the cell culture in each well of the plate and the luminescence signal is measured with a TopCount plate-reader after 10 minutes of incubation at room temperature.
On the technique in general: In ATP-based viability assays light output follows the ATP content of the culture.

For data set [2], the system named is HCV replicon in human hepatoma Huh-7 cell line. The data set can be described thus: Anti-HCV replicon assay (EC50, luciferase). The data set is classed as cell-based. The settings on record: Hepatitis C virus, Huh-7, 72 h. The method, then:
as §1, §2, §3, §4, §5
In general terms: A replicon is a self-replicating genome or part of one, used to study replication in cells.

SMILES strings stand for the structures. pEC50: −log10 of the molar value. A value given as a limit tells only on which side of the number the result lay.

For the compound `CCOc1nc(NCc2ccc(F)cc2)nc2ccc(-c3ccc(N4CCCC4=O)cc3)nc12` [Example 104, 1-{4-[4-Ethoxy-2-(4-fluoro-benzylamino)-pyrido[3,2-d]pyrimidin-6-yl]-phenyl}-pyrrolidin-2-one], the CC50 (commonly the concentration at which the toxic effect on the cells reaches its halfway point) at 3 days in data set [1] lay in the range of 5 to 25 µM. For the same compound, the pEC50 (as a rule, the negative decadic logarithm of the EC50, by convention in mol/L) in data set [2] is above 7.00.
`NS(=O)(=O)c1ccc(CNc2nc(NC3CC3)c3nc(-c4ccc(NC(=O)C5(O)CC5)cc4)ccc3n2)cc1` [Example 181, 1-Hydroxy-cyclopropanecarboxylic acid {4-[4-cyclopropylamino-2-(4-sulfamoyl-benzylamino)-pyrido[3,2-d]pyrimidin-6-yl]-phenyl}-amide] gave a CC50 at 3 days in data set [1] below 5 µM. In addition, the pEC50 in data set [2] is above 7.00.
Turning to `C[C@H](N)C(=O)Nc1ccc(-c2ccc3nc(NCc4ccc(S(N)(=O)=O)cc4)nc(NCC(F)(F)F)c3n2)cc1` [Example 221, 2-Amino-N-{4-[2-(4-sulfamoyl-benzylamino)-4-(2,2,2-trifluoro-ethylamino)-pyrido[3,2-d]pyrimidin-6-yl]-phenyl}-propionamide], the CC50 at 3 days in data set [1] was above 25 µM. This compound also gave a pEC50 in data set [2] above 7.00.
For `CCOc1nc(NCc2ccc(F)cc2)nc2ccc(-c3ccc(NC(=O)C(C)(C)N)cc3)nc12` [Example 105, 2-Amino-N-{4-[4-ethoxy-2-(4-fluoro-benzylamino)-pyrido[3,2-d]pyrimidin-6-yl]-phenyl}-2-methyl-propionamide] the same measures were below 5 µM and above 7.00.
Compound `CCOc1nc(NCc2cocn2)nc2ccc(-c3ccc(F)cc3)nc12` [Example 115, [4-Ethoxy-6-(4-fluoro-phenyl)-pyrido[3,2-d]pyrimidin-2-yl]-oxazol-4-ylmethyl-amine] had a CC50 at 3 days in data set [1] of 5 to 25 µM. Also, in data set [2], the pEC50 is above 7.00.
Taken in the same sequence, the figures for `NS(=O)(=O)c1ccc(CNc2nc(NCC(F)(F)F)c3nc(-c4ccc(NC(=O)C5(O)CC5)cc4)ccc3n2)cc1` [Example 180, 1-Hydroxy-cyclopropanecarboxylic acid {4-[2-(4-sulfamoyl-benzylamino)-4-(2,2,2-trifluoro-ethylamino)-pyrido[3,2-d]pyrimidin-6-yl]-phenyl}-amide] were above 25 µM and above 7.00.
Taken in the same sequence, the figures for `CCOc1nc(NCc2ccc(CS(=O)(=O)NC(C)C)cc2)nc2ccc(-c3ccc(F)cc3)nc12` [Example 117, C-(4-{[4-Ethoxy-6-(4-fluoro-phenyl)-pyrido[3,2-d]pyrimidin-2-ylamino]-methyl}-phenyl)-N-isopropyl-methanesulfonamide] were 5 to 25 µM and above 7.00.
Compound `CCOc1nc(NCc2ccc(S(N)(=O)=O)cc2)nc2ccc(-c3ccc(NC(=O)[C@H]4CCNC4)c(F)c3)nc12` [Example 120, (S)-4-{[4-Ethoxy-6-(3-fluoro-4-(pyrrolidine-3-carboxamido)-phenyl)-pyrido[3,2-d]pyrimidin-2-ylamino]-methyl}-benzenesulfonamide] came in with a 50% cytotoxic concentration (CC50) at 3 days in data set [1] of 5 to 25 µM. For the same compound, in data set [2], the pEC50 is above 7.00.
Taken in the same sequence, the figures for `CN1CC[C@H](C(=O)Nc2ccc(-c3ccc4nc(NCc5ccc(S(N)(=O)=O)cc5)nc(OC5CC5)c4n3)cc2)C1` [Example 176, 1-Methyl-pyrrolidine-3-carboxylic acid {4-[4-cyclopropoxy-2-(4-sulfamoyl-benzylamino)-pyrido[3,2-d]pyrimidin-6-yl]-phenyl}-amide] were above 25 µM and above 7.00.
Regarding `NS(=O)(=O)c1ccc(CNc2nc(C3CC3)c3nc(-c4cccc(S(N)(=O)=O)c4)ccc3n2)cc1` [Example 291, 4-{[4-Cyclopropyl-6-(3-(aminosulfonyl)-phenyl)-pyrido[3,2-d]pyrimidin-2-ylamino]-methyl}-benzenesulfonamide], in data set [1], the CC50 at 3 days is below 5 µM. The compound further gave a negative-log EC50 (pEC50) in data set [2] above 7.00.
As to `NS(=O)(=O)c1ccc(CNc2nc(OC3CCCC3)c3nc(-c4ccc(F)cc4)ccc3n2)cc1` [Example 110, 4-{[4-Cyclopentyloxy-6-(4-fluoro-phenyl)-pyrido[3,2-d]pyrimidin-2-ylamino]-methyl}-benzenesulfonamide], the CC50 at 3 days in data set [1] is 5 to 25 µM. Moreover, the pEC50 in data set [2] was above 7.00.
In turn, `CS(=O)(=O)CCNc1nc(NCc2ccc(S(N)(=O)=O)cc2)nc2ccc(-c3ccc(F)c(NS(=O)(=O)C4CC4)c3)nc12` [Example 164, 4-{[4-(2-Methanesulfonylethyl)-amino-6-(4-(3-cyclopropanesulfonamido-4-fluoro)-phenyl)-pyrido[3,2-d]pyrimidin-2-ylamino]-methyl}-benzenesulfonamide] gave a CC50 at 3 days in data set [1] above 25 µM. The compound also gave a pEC50 in data set [2] of 6.60 to 7.00.
For `N#Cc1cccc(-c2ccc3nc(NCc4ccc(S(N)(=O)=O)cc4)nc(NCC(F)(F)F)c3n2)c1` [Example 175, 4-{[6-(3-Cyano-phenyl)-4-(2,2,2-trifluoro-ethylamino)-pyrido[3,2-d]pyrimidin-2-ylamino]-methyl}-benzenesulfonamide] the same measures were above 25 µM and above 7.00.
For `NC(=O)c1ccc(CNc2nc(NCC(F)(F)F)c3nc(-c4ccc(F)cc4)ccc3n2)cc1` [Example 261, 4-{[6-(4-Fluoro-phenyl)-4-(2,2,2-trifluoro-ethylamino)-pyrido[3,2-d]pyrimidin-2-ylamino]-methyl}-benzamide] the same measures were below 5 µM and above 7.00.
The compound `CC(C)Nc1cnn(-c2ccc3nc(NCc4ccc(S(N)(=O)=O)cc4)nc(NCC(F)(F)F)c3n2)c1` [Example 284, 4-{[6-(4-Isopropylamino-pyrazol-1-yl)-4-(2,2,2-trifluoro-ethylamino)-pyrido[3,2-d]pyrimidin-2-ylamino]-methyl}-benzenesulfonamide] yielded a CC50 at 3 days in data set [1] above 25 µM. The pEC50 in data set [2] is above 7.00.
Taken in the same sequence, the figures for `NS(=O)(=O)c1ccc(CNc2nc(NCC(F)(F)F)c3nc(-c4ccc(N5CCC(O)C5=O)cc4)ccc3n2)cc1` (stereo not drawn) [Example 179, 4-{[6-[4-(3-Hydroxy-2-oxo-pyrrolidin-1-yl)-phenyl]-4-(2,2,2-trifluoro-ethylamino)-pyrido[3,2-d]pyrimidin-2-ylamino]-methyl}-benzenesulfonamide] were above 25 µM and above 7.00.
For `CS(=O)(=O)C1CCN(c2nc(NCc3ccc(F)cc3)nc3ccc(-c4ccc(F)cc4)nc23)C1` (stereo not drawn) [Example 27, (4-Fluoro-benzyl)-[6-(4-fluoro-phenyl)-4-(3-methanesulfonyl-pyrrolidin-1-yl)-pyrido[3,2-d]pyrimidin-2-yl]-amine] the same measures were below 5 µM and above 7.00.
For `CCOc1nc(NCc2ccc(F)c(F)c2)nc2ccc(-c3ccc(F)cc3)nc12` [Example 35, (3,4-Difluoro-benzyl)-[4-ethoxy-6-(4-fluoro-phenyl)-pyrido[3,2-d]pyrimidin-2-yl]-amine] the same measures were 5 to 25 µM and above 7.00.
In the case of `CCOc1nc(NCc2ncco2)nc2ccc(-c3ccc(F)cc3)nc12` [Example 266, [4-Ethoxy-6-(4-fluoro-phenyl)-pyrido[3,2-d]pyrimidin-2-yl]-oxazol-2-ylmethyl-amine], the CC50 at 3 days in data set [1] was above 25 µM. In data set [2], this compound showed a pEC50 above 7.00.
In data set [1], `CS(=O)(=O)N(CCO)c1cccc(-c2ccc3nc(NCc4ccc(S(N)(=O)=O)cc4)nc(NCC(F)(F)F)c3n2)c1` [Example 161, 4-{[4-(2,2,2-Trifluoroethyl)-amino-6-(4-(3-(N-2-hydroxyethyl)methane-sulfonamido)-phenyl)-pyrido[3,2-d]pyrimidin-2-ylamino]-methyl}-benzenesulfonamide] gave a CC50 at 3 days above 25 µM. In data set [2], this compound had a pEC50 above 7.00.
In data set [1], `CS(=O)(=O)CCNc1nc(NCc2ccc(S(N)(=O)=O)cc2)nc2ccc(-c3ccc(NC(=O)C4(O)CC4)cc3)nc12` [Example 155, 4-{[4-(2-Methanesulfonylethyl)-amino-6-(4-((1-hydroxy-1-cyclopropyl)-carboxamido)-phenyl)-pyrido[3,2-d]pyrimidin-2-ylamino]-methyl}-benzenesulfonamide] displayed a CC50 at 3 days above 25 µM. The same compound gave a pEC50 in data set [2] of 6.60 to 7.00.

(Values after US8729089B2 (Gilead Sciences, Inc., priority 2006, dated 2014).)
